In PubChem BioAssay AID179 (DTP/NCI, 2004):
Active and inactive are the calls of the source.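 The calls were made as follows: active = compounds giving half or more protection of infected cells from virus-caused growth loss, again on retest; inactive = the rest.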

Test system: CEM cells HIV-1 protection, formazan growth assay
Experiment: NCI AIDS Antiviral Assay
Details: for IC50: measured here: growth of uninfected CEM cells
Procedure, shortened: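 Soluble formazan readout of cell growth; CEM cells ± HIV-1; 5 drug concs. ≥50% protection → retest; ≥50% again = moderately active; reproducible 100% = confirmed active.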

`O=[S@](c1ccccc1)[C@@H]1CC2C3CC4C2C4C31` (some centres not stated) was tested, and the EC50 was > 537 µM and the IC50 was 324 µM.
In the case of `Cc1nc(NC(=S)NC(=O)c2ccc(Cl)c(Cl)c2)sc1C(=O)/C=C/c1ccccc1[N+](=O)[O-]`, the EC50 is reported as > 19.1 µM and the IC50 is reported as > 19.1 µM.
For `CCCC1N=C(c2ccccc2)C2C(c3ccc([N+](=O)[O-])cc3)N12` (configuration not stated), the EC50 was > 200 µM and the IC50 was 148 µM.
In the case of `O=S(=O)(O)C(O)C(F)(F)C(F)(F)C(F)(F)C(F)(F)C(O)S(=O)(=O)O` (configuration not stated), the EC50 is reported as > 200 µM and the IC50 is reported as 155 µM.
For `O=c1c2cc(Br)ccc2nc(-c2ccccc2)n1NCC1(O)OCC(O)C(O)C1O` (configuration not stated), the outcome was “inactive”.
`O=C(NCCCl)c1ccc(Cl)c(Cl)c1` was tested, and the outcome was “inactive”.
In the case of `Cc1ccccc1-n1c(SCC(=O)NC(=O)Nc2cccc(Cl)c2)nc2c(Br)cc(Br)cc2c1=O`, the EC50 is reported as > 200 µM and the IC50 is reported as > 200 µM.
For `O=c1oc2cc(O)ccc2c(O)c1C(c1ccc2ccccc2c1)c1c(O)c2ccc(O)cc2oc1=O`, the outcome was “inactive”.
For `COc1cc2ccc1OCc1cccc(n1)COc1ccc(cc1OC)C=Nc1ccc(cc1)-c1ccc(cc1)N=C2`, the EC50 was > 200 µM and the IC50 was > 200 µM.
`COc1c(C)c2nc3ccccc3[nH]c2c2c(=O)ccnc12` was tested, and the EC50 was > 100 µM and the IC50 was > 100 µM.
With `O=C(/C=C/c1ccc(O)c(O)c1)c1cc(O)cc(O)c1` the EC50 was > 200 µM and the IC50 was 15.1 µM.
With `Brc1csnn1` the EC50 was > 200 µM and the IC50 was > 200 µM.
For `CC(/C=N/NC1=NCCCCN1)=N\NC1=NCCCCN1`, the EC50 was > 200 µM and the IC50 was 120 µM.
`Cc1ccsc1C(=S)Nc1ccc(Cl)c(/C=N/OC(C)C)c1` gave an EC50 of 0.0575 µM and an IC50 of 10.7 µM.
For `CC1=CC(=O)N2CCN=C2S1`, the EC50 was > 200 µM and the IC50 was > 200 µM.
With `OC(CN(CCCl)CCCl)C(O)C(O)C(O)CN(CCCl)CCCl` (configuration not stated) the outcome was “inactive”.
For `N#C/C(N)=C(\C#N)N=CN`, the EC50 was > 200 µM and the IC50 was > 200 µM.
`Nc1nc(Cl)cc(NCC2(CO)CC=CC2)n1` was tested, and the EC50 was > 200 µM and the IC50 was > 200 µM.
With `CC(=O)Nc1cc2cc(NS(=O)(=O)c3ccc(Cl)c(Cl)c3)ccc2oc1=O` the EC50 was > 47.9 µM and the IC50 was > 47.9 µM.
`CC(=O)OCC(OC(C)=O)C(OC(C)=O)C(OC(C)=O)C(=O)CNn1c(-c2ccccc2Cl)nc2ccc(Br)cc2c1=O` (configuration not stated) was tested, and the outcome was “inactive”.
For `CC1(C)CC[C@]2(C(=O)O)C(O)CC3(C)C(=CCC4[C@@]5(C)CC[C@H](OS(=O)(=O)O)C(C)(C)C5CC[C@]43C)[C@@H]2C1` (some centres not stated), the EC50 was > 219 µM and the IC50 was > 219 µM.
`O=[N+]([O-])OC1CCCC(O[N+](=O)[O-])c2c1n([O-])c1ccccc1[n+]2=O` (configuration not stated) was tested, and the EC50 was > 51.3 µM and the IC50 was 1.41 µM.
With `CC1=NN(C(=O)CC(=O)Nc2ccc(C)cc2)C(=O)C1N=Nc1ccc(S(N)(=O)=O)cc1` (configuration not stated) the EC50 was > 0.631 µM and the IC50 was > 0.631 µM.
For `COC(=O)c1cnn2c1n[n+]([O-])c1ccccc12`, the EC50 was > 200 µM and the IC50 was > 200 µM.
With `COc1ccc(S(=O)(=O)Nc2ccccc2C(=O)O)cc1` the outcome was “inactive”.
`O=C(Nc1ccc([N+](=O)[O-])cn1)Nc1cc([N+](=O)[O-])ccc1F` was tested, and the EC50 was > 200 µM and the IC50 was 17.4 µM.
With `CCOC(=O)C1=C(O)c2ccc(OC)cc2C(=O)C1=O` the EC50 was > 339 µM and the IC50 was 204 µM.
In the case of `COc1cc(C(=O)/C=C/c2ccc(OCC#N)cc2)cc(OC)c1OC`, the EC50 is reported as > 200 µM and the IC50 is reported as 29.5 µM.
`CC(C)[N+](C)(C)CC(O)COc1cccc2ccccc12` (configuration not stated) was tested, and the EC50 was > 200 µM and the IC50 was > 200 µM.
`Cc1ccc(S(=O)(=O)ON2C(=O)c3cccc4cc([N+](=O)[O-])cc(c34)C2=O)cc1` was tested, and the EC50 was > 63.1 µM and the IC50 was > 63.1 µM.
`O=C(O)CCCCCCCc1cc(O)ccc1[N+](=O)[O-]` was tested, and the EC50 was > 200 µM and the IC50 was > 200 µM.
In the case of `CC(C)N([P-]C(=O)[P-]N(C(C)C)C(C)C)C(C)C.[C-]#[O+].[C-]#[O+].[C-]#[O+].[C-]#[O+].[C-]#[O+].[C-]#[O+].[Fe].[Fe]` (configuration not stated), the EC50 is reported as > 3.55 µM and the IC50 is reported as > 3.55 µM.
For `c1ccc2c(c1)Nc1ccccc1[P+]21c2ccccc2Nc2ccccc21`, the EC50 was > 2 µM and the IC50 was 0.288 µM.
With `Cc1nc2c(=O)[nH]c(=O)n(C)c2[nH]c1=O` the EC50 was > 34.7 µM and the IC50 was > 34.7 µM.
